Key:
Experiment in all cases: relative viability (nuclei count vs DMSO), 5 days (fraction); higher = more cells survive
NCI-H1355 = test system: NCI-H1355
Procedure, shortened: (§1)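 Relative viability divides the nuclei count in treated wells by that in vehicle wells. Lung cancer cell lines were seeded in 1536-well plates, dosed by pin tool the next day, and fixed and stained after 5 days in one step with final 0.05% Triton X-100, 1% formaldehyde and 1 ug/ml Hoechst. Dosing was a single drug or a fixed anchor-drug dose plus five library-drug doses (not always all listed) in √10 steps, and values are medians of duplicate plates imaged at 4×.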

NCI-H520 = test system: NCI-H520
Procedure, shortened: as §1

NCI-H1755 = test system: NCI-H1755
Procedure, shortened: as §1

PC-14 = test system: PC-14
Procedure, shortened: as §1

HCC-827 = test system: HCC-827
Procedure, shortened: as §1

NCI-H1975 = test system: NCI-H1975
Procedure, shortened: as §1

H3255 = test system: H3255
Procedure, shortened: as §1

PC-3 [JPC-3] = test system: PC-3 [JPC-3]
Procedure, shortened: as §1

LK-2 = test system: LK-2
Procedure, shortened: as §1

RERF-LC-KJ = test system: RERF-LC-KJ
Procedure, shortened: as §1

NCI-H1563 = test system: NCI-H1563
Procedure, shortened: as §1

NCI-H2405 = test system: NCI-H2405
Procedure, shortened: as §1

NCI-H1734 = test system: NCI-H1734
Procedure, shortened: as §1

EKVX = test system: EKVX
Procedure, shortened: as §1

NCI-H322M = test system: NCI-H322M
Procedure, shortened: as §1

HCC-15 = test system: HCC-15
Procedure, shortened: as §1

LCLC-97TM1 = test system: LCLC-97TM1
Procedure, shortened: as §1

NCI-H2228 = test system: NCI-H2228
Procedure, shortened: as §1

NCI-H1650 = test system: NCI-H1650
Procedure, shortened: as §1

NCI-H661 = test system: NCI-H661
Procedure, shortened: as §1

CAL-12T = test system: CAL-12T
Procedure, shortened: as §1

With `O=c1cc(N2CCOCC2)oc2c(-c3cccc4c3sc3ccccc34)cccc12` + C[C@@H](Oc1cc(-c2cnn(C3CCNCC3)c2)cnc1N)c1c(Cl)ccc(F)c1Cl [Crizotinib] (partner 1 µM) the relative viability (NCI-H1355; first compound 0.01 µM) was 1.17, the relative viability (NCI-H1355; first compound 0.03162 µM) was 1.12 and the relative viability (NCI-H1355; first compound 0.3162 µM) was 1.11. For the same compound, the relative viability (NCI-H1355; first compound 1 µM) was 0.941, the relative viability (NCI-H520; first compound 0.01 µM) was 0.824 and the relative viability (NCI-H520; first compound 0.03162 µM) was 0.739. The relative viability (NCI-H520; first compound 0.1 µM) was 1.04, the relative viability (NCI-H520; first compound 0.3162 µM) was 0.697 and the relative viability (NCI-H520; first compound 1 µM) was 0.825. It also gave a relative viability (NCI-H1755; first compound 0.01 µM) of 0.875, a relative viability (NCI-H1755; first compound 0.03162 µM) of 0.812 and a relative viability (NCI-H1755; first compound 0.1 µM) of 0.838. The relative viability (NCI-H1755; first compound 0.3162 µM) was 0.807, the relative viability (NCI-H1755; first compound 1 µM) was 0.767 and the relative viability (PC-14; first compound 0.01 µM) was 0.906. For the same compound, the relative viability (PC-14; first compound 0.03162 µM) was 0.82, the relative viability (PC-14; first compound 0.1 µM) was 0.85 and the relative viability (PC-14; first compound 0.3162 µM) was 0.843. For the same compound, the relative viability (PC-14; first compound 1 µM) was 0.795, the relative viability (HCC-827; first compound 0.01 µM) was 0.918 and the relative viability (HCC-827; first compound 0.03162 µM) was 0.939. It also gave a relative viability (HCC-827; first compound 0.1 µM) of 0.873, a relative viability (HCC-827; first compound 0.3162 µM) of 0.965 and a relative viability (HCC-827; first compound 1 µM) of 0.956. The relative viability (NCI-H1975; first compound 0.01 µM) was 0.862, the relative viability (NCI-H1975; first compound 0.03162 µM) was 0.998 and the relative viability (NCI-H1975; first compound 0.1 µM) was 1.02. For the same compound, the relative viability (NCI-H1975; first compound 0.3162 µM) was 0.808, the relative viability (NCI-H1975; first compound 1 µM) was 0.984 and the relative viability (H3255; first compound 0.01 µM) was 0.871. It also gave a relative viability (H3255; first compound 0.03162 µM) of 1.05, a relative viability (H3255; first compound 0.1 µM) of 0.971 and a relative viability (H3255; first compound 0.3162 µM) of 0.926. The relative viability (H3255; first compound 1 µM) was 0.769, the relative viability (PC-3 [JPC-3]; first compound 0.01 µM) was 0.931 and the relative viability (PC-3 [JPC-3]; first compound 0.03162 µM) was 0.903. For the same compound, the relative viability (PC-3 [JPC-3]; first compound 0.1 µM) was 0.938, the relative viability (PC-3 [JPC-3]; first compound 0.3162 µM) was 0.941 and the relative viability (PC-3 [JPC-3]; first compound 1 µM) was 1.01. It also gave a relative viability (LK-2; first compound 0.01 µM) of 0.227, a relative viability (LK-2; first compound 0.03162 µM) of 0.258 and a relative viability (LK-2; first compound 0.1 µM) of 0.219. For the same compound, the relative viability (LK-2; first compound 0.3162 µM) was 0.193, the relative viability (LK-2; first compound 1 µM) was 0.243 and the relative viability (RERF-LC-KJ; first compound 0.01 µM) was 0.838. It also gave a relative viability (RERF-LC-KJ; first compound 0.03162 µM) of 0.798, a relative viability (RERF-LC-KJ; first compound 0.1 µM) of 0.871 and a relative viability (RERF-LC-KJ; first compound 0.3162 µM) of 0.823. For the same compound, the relative viability (RERF-LC-KJ; first compound 1 µM) was 0.808, the relative viability (NCI-H1563; first compound 0.01 µM) was 0.809 and the relative viability (NCI-H1563; first compound 0.03162 µM) was 0.795. It also gave a relative viability (NCI-H1563; first compound 0.1 µM) of 0.848, a relative viability (NCI-H1563; first compound 0.3162 µM) of 0.711 and a relative viability (NCI-H1563; first compound 1 µM) of 0.82. It also gave a relative viability (NCI-H2405; first compound 0.01 µM) of 0.814, a relative viability (NCI-H2405; first compound 0.03162 µM) of 0.856 and a relative viability (NCI-H2405; first compound 0.1 µM) of 0.915. It also gave a relative viability (NCI-H2405; first compound 0.3162 µM) of 0.849, a relative viability (NCI-H2405; first compound 1 µM) of 0.84 and a relative viability (NCI-H1734; first compound 0.01 µM) of 0.766. The relative viability (NCI-H1734; first compound 0.03162 µM) was 0.678, the relative viability (NCI-H1734; first compound 0.1 µM) was 0.699 and the relative viability (NCI-H1734; first compound 0.3162 µM) was 0.61. For the same compound, the relative viability (NCI-H1734; first compound 1 µM) was 0.642, the relative viability (EKVX; first compound 0.01 µM) was 1.04 and the relative viability (EKVX; first compound 0.03162 µM) was 0.881. For the same compound, the relative viability (EKVX; first compound 0.1 µM) was 1.18, the relative viability (EKVX; first compound 0.3162 µM) was 0.915 and the relative viability (EKVX; first compound 1 µM) was 0.995. For the same compound, the relative viability (NCI-H322M; first compound 0.01 µM) was 0.94, the relative viability (NCI-H322M; first compound 0.03162 µM) was 0.842 and the relative viability (NCI-H322M; first compound 0.3162 µM) was 0.943. For the same compound, the relative viability (NCI-H322M; first compound 1 µM) was 0.84, the relative viability (HCC-15; first compound 0.01 µM) was 0.807 and the relative viability (HCC-15; first compound 0.03162 µM) was 0.846. It also gave a relative viability (HCC-15; first compound 0.1 µM) of 0.879, a relative viability (HCC-15; first compound 0.3162 µM) of 0.773 and a relative viability (HCC-15; first compound 1 µM) of 0.764. The relative viability (LCLC-97TM1; first compound 0.01 µM) was 0.444, the relative viability (LCLC-97TM1; first compound 0.03162 µM) was 0.339 and the relative viability (LCLC-97TM1; first compound 0.3162 µM) was 0.281. For the same compound, the relative viability (LCLC-97TM1; first compound 1 µM) was 0.39, the relative viability (NCI-H2228; first compound 0.03162 µM) was 0.479 and the relative viability (NCI-H2228; first compound 0.1 µM) was 0.501. For the same compound, the relative viability (NCI-H2228; first compound 0.3162 µM) was 0.403, the relative viability (NCI-H2228; first compound 1 µM) was 0.471 and the relative viability (NCI-H1650; first compound 0.03162 µM) was 0.906. It also gave a relative viability (NCI-H1650; first compound 0.1 µM) of 0.872, a relative viability (NCI-H1650; first compound 0.3162 µM) of 0.826 and a relative viability (NCI-H1650; first compound 1 µM) of 0.921. For the same compound, the relative viability (NCI-H661; first compound 0.01 µM) was 1.06, the relative viability (NCI-H661; first compound 0.03162 µM) was 0.983 and the relative viability (NCI-H661; first compound 0.1 µM) was 0.927. It also gave a relative viability (NCI-H661; first compound 0.3162 µM) of 0.817, a relative viability (NCI-H661; first compound 1 µM) of 0.92 and a relative viability (CAL-12T; first compound 0.01 µM) of 0.58. For the same compound, the relative viability (CAL-12T; first compound 0.03162 µM) was 0.657, the relative viability (CAL-12T; first compound 0.1 µM) was 0.767 and the relative viability (CAL-12T; first compound 0.3162 µM) was 0.591. For the same compound, the relative viability (CAL-12T; first compound 1 µM) was 0.775.
